Results as given in US9963444B2, “N-acylethanolamine hydrolyzing acid amidase (NAAA) inhibitors and their use thereof” (Northeastern University, priority 2014, dated 2018).

Target: hNAAA (Homo sapiens (Human), UniProt Q02083)
Assay: Fluorescence-based NAAA inhibition assay with fluorogenic substrate PAMCA;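 note: compound preincubated 15 min at room temperature with hNAAA, then PAMCA added at 5 µM, reacted 120 min at 37 °C, AMC release read by fluorescence (ex 360, em 460 nm)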
Settings: not given

Sequence of hNAAA (Q02083 29-125): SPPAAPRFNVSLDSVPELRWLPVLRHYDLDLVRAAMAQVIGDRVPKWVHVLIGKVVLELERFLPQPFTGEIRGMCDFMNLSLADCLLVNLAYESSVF
Sequence of hNAAA (Q02083 126-359): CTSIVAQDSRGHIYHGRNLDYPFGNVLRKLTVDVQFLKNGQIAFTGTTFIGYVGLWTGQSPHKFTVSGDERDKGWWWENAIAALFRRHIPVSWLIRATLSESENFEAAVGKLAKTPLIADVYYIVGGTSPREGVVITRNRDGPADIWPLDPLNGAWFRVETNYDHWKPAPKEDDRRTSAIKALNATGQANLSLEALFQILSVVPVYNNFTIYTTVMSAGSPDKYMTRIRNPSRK

Row | IC50 | Compound
1 | 0.01 to 0.1 µM | N#CN1CC(OCc2ccc(-c3ccc4c(c3)OCCO4)cc2)(c2ccccc2)C1 [Example 98, 3-((4-(2,3-Dihydrobenzo[b][1,4]dioxin-6-yl)benzyl)oxy)-3-phenylazetidine-1-carbonitrile]
2 | 0.01 to 0.1 µM | N#CN1CC(OCc2ccc(-c3ccc4c(c3)OCO4)cc2)(c2ccccc2)C1 [Example 97, 3-((4-(Benzo[d][1,3]dioxol-5-yl)benzyl)oxy)-3-phenylazetidine-1-carbonitrile]
3 | 0.01 to 0.1 µM | COc1cccc(-c2cc(Oc3ccccc3)ccc2COC2CN(C#N)C2)c1 [Example 89, 3-((3′-Methoxy-5-phenoxy-[1,1′-biphenyl]-2-yl)methoxy)azetidine-1-carbonitrile]
4 | 0.01 to 0.1 µM | N#CN1CC(OCc2ccc(OC(c3ccc(F)cc3)c3ccc(F)cc3)cc2Br)C1 [Example 94, 3-((4-(Bis(4-fluorophenyl)methoxy)-2-bromobenzyl)oxy)azetidine-1-carbonitrile]
5 | 0.01 to 0.1 µM | COc1cccc(-c2ccc(COC3CN(C#N)C3)cc2)c1OC [Example 69, 3-((2′,3′-Dimethoxy-[1,1′-biphenyl]-4-yl)methoxy)azetidine-1-carbonitrile]
6 | 0.01 to 0.1 µM | COc1cccc(OC)c1-c1ccc(COC2CN(C#N)C2)cc1 [Example 83, 3-((2′,6′-Dimethoxy-[1,1′-biphenyl]-4-yl)methoxy)azetidine-1-carbonitrile]
7 | 0.01 to 0.1 µM | Cc1noc(C)c1-c1ccc(C(OC2CN(C#N)C2)c2ccccc2)cc1 (centres unmarked) [Example 101, 3-((4-(3,5-Dimethylisoxazol-4-yl)phenyl)(phenyl)methoxy)azetidine-1-carbonitrile]
8 | 0.01 to 0.1 µM | N#CN1CC(OCc2ccc(-c3cccnc3)cc2)C1 [Example 72, 3-((4-(Pyridin-3-yl)benzyl)oxy)azetidine-1-carbonitrile]
9 | 0.01 to 0.1 µM | COc1cccc(-c2ccc(COC3(C)CN(C#N)C3)cc2)c1 [Example 95, 3-((3′-Methoxy-[1,1′-biphenyl]-4-yl)methoxy)-3-methylazetidine-1-carbonitrile]
10 | 0.01 to 0.1 µM | N#CN1CC(COCc2ccc(-c3ccccc3)cc2)C1 [Example 86, 3-(([1,1′-Biphenyl]-4-ylmethoxy)methyl)azetidine-1-carbonitrile]
11 | 0.01 to 0.1 µM | COc1ccccc1-c1cc(Oc2ccccc2)ccc1COC1CN(C#N)C1 [Example 88, 3-((2′-Methoxy-5-phenoxy-[1,1′-biphenyl]-2-yl)methoxy)azetidine-1-carbonitrile]
12 | 0.01 to 0.1 µM | N#CN1CC(OCc2ccc(-c3ccc(F)cc3)cc2)C1 [Example 77, 3-((4′-Fluoro-[1,1′-biphenyl]-4-yl)methoxy)azetidine-1-carbonitrile]
13 | 0.01 to 0.1 µM | COc1cccc(-c2ccc(COC3CN(C#N)C3)c(C(F)(F)F)c2)c1 [Example 79, 3-((3′-Methoxy-3-(trifluoromethyl)-[1,1′-biphenyl]-4-yl)methoxy)azetidine-1-carbonitrile]
14 | 0.01 to 0.1 µM | N#CN1CC(OCc2ccc(-c3cccc(OCc4ccccc4)c3)cc2)C1 [Example 85, 3-((3′-(Benzyloxy)-[1,1′-biphenyl]-4-yl)methoxy)azetidine-1-carbonitrile]
15 | 0.01 to 0.1 µM | N#CN1CC(OC(c2ccccc2)c2ccc(Br)cc2)C1 (centres unmarked) [Example 99, 3-((4-Bromophenyl)(phenyl)methoxy)azetidine-1-carbonitrile]
16 | 0.01 to 0.1 µM | COc1ccc(-c2ccc(COC3CN(C#N)C3)cc2)cc1 [Example 63, 3-((4′-Methoxy-[1,1′-biphenyl]-4-yl)methoxy)azetidine-1-carbonitrile]
17 | 0.01 to 0.1 µM | N#CN1CC(OCc2ccc(Oc3ccccc3)cc2-c2ccccc2)C1 [Example 87, 3-((5-Phenoxy-[1,1′-biphenyl]-2-yl)methoxy)azetidine-1-carbonitrile]

Row | Compound | IC50
18 | S=C=NCCCOCc1cccc(-c2ccccc2)c1 [Example 24, 3-((3-Isothiocyanatopropoxy)methyl)-1,1′-biphenyl] | 0.01 to 0.1 µM
19 | S=C=NCCCCCCCCCCc1ccncc1 [Example 19, 4-(10-Isothiocyanatodecyl)pyridine] | 0.01 to 0.1 µM
20 | S=C=NCCOCCOCCOCc1ccccc1 [Example 23, ((2-(2-(2-Isothiocyanatoethoxy)ethoxy)ethoxy)methyl)benzene] | 0.01 to 0.1 µM
21 | S=C=NCCCCCN1CCC(Cc2ccccc2)CC1 [Example 27, 4-Benzyl-1-(5-isothiocyanatopentyl)piperidine] | 0.01 to 0.1 µM
22 | Fc1cc(-c2ccc3c(c2)OCCO3)ccc1CO[C@H]1C[C@@H](N=C=S)C1 [Example 38, 6-(3-Fluoro-4-(((1S,3S)-3-isothiocyanatocyclobutoxy)methyl)phenyl)-2,3-dihydrobenzo[b][1,4]dioxine] | 0.01 to 0.1 µM
23 | COc1ccc(-c2ccc(O[C@H]3C[C@H](N=C=S)C3)cc2)cc1F [Example 51, 3-Fluoro-4′-((1R,3R)-3-isothiocyanatocyclobutoxy)-4-methoxy-1,1′-biphenyl] | 0.01 to 0.1 µM
24 | S=C=NCCCOCc1ccc(Oc2ccccc2)cc1 [Example 26, 1((3-Isothiocyanatopropoxy)methyl)-4-phenoxybenzene] | 0.01 to 0.1 µM
25 | Fc1cc(-c2ccc3c(c2)OCO3)ccc1CO[C@H]1C[C@@H](N=C=S)C1 [Example 39, 5-(3-Fluoro-4-(((1S,3S)-3-isothiocyanatocyclobutoxy)methyl)phenyl)benzo[d][1,3]dioxole] | 0.01 to 0.1 µM
26 | S=C=NCCCCCCCCCc1ccccc1 [Example 22, (9-Isothiocyanatononyl)benzene] | 0.01 to 0.1 µM
27 | COc1cccc(-c2ccc(COC3CN(C#N)C3)cc2)c1 [Example 67, 3-((3′-Methoxy-[1,1′-biphenyl]-4-yl)methoxy)azetidine-1-carbonitrile] | 0.01 to 0.1 µM
28 | CC(C)Oc1ccc(-c2ccc(CO[C@H]3C[C@@H](N=C=S)C3)c(F)c2)cc1F [Example 37, 3,3′-Difluoro-4-isopropoxy-4′-(((1S,3S)-3-isothiocyanatocyclobutoxy)methyl)-1,1′-biphenyl] | 0.11 to 1 µM

Same assay, conditions: read-out: NAAA Inhibition IC50 μM; purified hNAAA, PAMCA 5 μM, pH 4.5

Row | Compound | IC50
29 | CCN(Cc1ccc(-c2ccc3c(c2)OCO3)cc1)C1CC(N=C=S)C1 [Example 56, (1R,3R)—N-(4-(benzo[d][1,3]dioxol-5-yl)benzyl)-N-ethyl-3-isothiocyanatocyclobutan-1-amine] | 0.11 to 1 µM
30 | S=C=NCCCCCc1ccccc1 [Example 2, (5-Isothiocyanatopentyl)benzene] | > 1 µM
31 | Fc1cc(Br)ccc1COC1CC(N=C=S)C1 [Example 44, 4-Bromo-2-fluoro-1-(((1R,3R)-3-isothiocyanatocyclobutoxy)methyl)benzene] | 0.11 to 1 µM
32 | S=C=NCc1ccc(N2CCOCC2)cc1 [Example 10, 4-(4-(Isothiocyanatomethyl)phenyl)morpholine] | > 1 µM
33 | S=C=NCCCCCCCCc1ccccc1 [Example 3, (8-Isothiocyanatooctyl)benzene] | > 1 µM
34 | O=C(OCc1ccccc1)N1CCC(CN=C=S)CC1 [Example 13, Benzyl 4-(isothiocyanatomethyl)tetrahydro-1(2H)-pyridinecarboxylate] | > 1 µM
35 | N#Cc1ncc(OCCCCCc2ccccc2)cn1 [Example 116, 5-((5-phenylpentyl)oxy)pyrimidine-2-carbonitrile] | > 1 µM
36 | N#C[C@H]1C[C@H](OCc2ccc(-c3ccccc3)cc2)C1 [Example 107, (1R,3R)-3-([1,1′-Biphenyl]-4-ylmethoxy)cyclobutane-1-carbonitrile] | > 1 µM
37 | S=C=Nc1ccc(Cc2ccncc2)cc1 [Example 8, 4-(4-Isothiocyanatobenzyl)pyridine] | > 1 µM
38 | S=C=N[C@H]1C[C@H](OCc2ccc(-c3ccccc3)cc2)C1 [Example 30, 4-(((1R,3R)-3-isothiocyanatocyclobutoxy)methyl)-1,1′-biphenyl] | > 1 µM
39 | COc1ccc(CCCCCCCCCCN=C=S)cc1 [Example 17, 1-(10-Isothiocyanatodecyl)-4-methoxybenzene] | > 1 µM
40 | COc1cccc(-c2ccc(COC3CN(CC#N)C3)cc2)c1 [Example 109, 2-(3-((3′-Methoxy-[1,1′-biphenyl]-4-yl)methoxy)azetidin-1-yl)acetonitrile] | > 1 µM
41 | COc1ccc(-c2ccc(COC3CCC(N=C=S)CC3)cc2)cc1F (centres unmarked) [Example 59, 3-Fluoro-4′-((((1r,4r)-4-isothiocyanatocyclohexyl)oxy)methyl)-4-methoxy-1,1′-biphenyl] | 0.11 to 1 µM
42 | S=C=NCCN1CCN(Cc2ccccc2)CC1 [Example 9, 1-Isothiocyanato-2-(4-benzylpiperazino)ethane] | > 1 µM
43 | FC(F)(F)c1cccc(-c2ccc(COC3CCCC(N=C=S)C3)cc2)c1 (centres unmarked) [Example 58, 4′-(((3-Isothiocyanatocyclohexyl)oxy)methyl)-3-(trifluoromethyl)-1,1′-biphenyl] | > 1 µM
44 | FC(F)(F)c1ccccc1CCCCCCCCCCN=C=S [Example 16, 1-(10-Isothiocyanatodecyl)-2-(trifluoromethyl)benzene] | > 1 µM
45 | CN(Cc1ccc(-c2ccccc2)cc1)C1CC(N=C=S)C1 [Example 53, (1R,3R)—N-([1,1′-Biphenyl]-4-ylmethyl)-3-isothiocyanato-N-methylcyclobutan-1-amine] | > 1 µM
46 | S=C=NCCN1CCC(Cc2ccccc2)CC1 [Example 11, 4-Benzyl-1-(2-isothiocyanatoethyl)piperidine] | > 1 µM
47 | Fc1cc(-c2cccc(C(F)(F)F)c2)ccc1COC1CC(N=C=S)C1 [Example 47, 3-Fluoro-4-(((1R,3R)-3-isothiocyanatocyclobutoxy)methyl)-3′-(trifluoromethyl)-1,1′-biphenyl] | 0.01 to 0.1 µM
48 | COc1ccc(-c2ccc(F)c(CO[C@H]3C[C@@H](N=C=S)C3)c2)cc1F [Example 43, 3,4′-Difluoro-3′-(((1S,3S)-3-isothiocyanatocyclobutoxy)methyl)-4-methoxy-1,1′-biphenyl] | > 1 µM
49 | Fc1cc(-c2cccc(OCc3ccccc3)c2)ccc1COC1CC(N=C=S)C1 [Example 48, 3′-(Benzyloxy)-3-fluoro-4-(((1R,3R)-3-isothiocyanatocyclobutoxy)methyl)-1,1′-biphenyl] | 0.01 to 0.1 µM
50 | N#CN1CCC(Oc2ccc(Br)cc2)CC1 [Example 106, 4-(4-Bromophenoxy)piperidine-1-carbonitrile] | > 1 µM
